Experimental data taken from PMC9515143, “Phosphorylation of Jhd2 by the Ras-cAMP-PKA(Tpk2) pathway regulates histone modifications and autophagy” (Nature Communications, 2022).

Experiments:
Assay type in all cases: cell-based, budding yeast (Saccharomyces cerevisiae)
H2Bub = experiment: Western blot of H2B monoubiquitination (H2Bub) after glucose; conditions: for H2Bub/H2B: 0.5 hr
Protocol: (§1) To examine the effect of glucose on histone modifications, yeast cells were grown in 2% glucose-containing YPD (Yeast Extract Peptone Dextrose) medium until OD600 of 0.7–1.0. Cells were then collected, washed and resuspended in YP medium for 3 hr followed by treatment with different concentrations of glucose for 0.5 hr. For 1NM-PP1 (MCE, HY-13804) treatment, cells were grown in 2% YPD until OD600 of 0.7–1.0. Cells were then treated with 25 μM 1NM-PP1 for 0.5 hr. For FBP and pyruvate treatment, cells were pre-treated with Zymolase (Mpbio, 08320921) to increase the permeability. In brief, cells were grown in YPD medium until OD600 of 0.7–1.0, centrifuged and resuspended in 1 ml SB buffer (100 mM Sorbitol, 20 mM Tris pH 7.4). 10 μl Zymolase was then added and incubated at 30 °C for 15 min. The spheroplasts were washed and cultured in YPD medium containing different concentrations of FBP and pyruvate for 3 hr.
(§2) Cells were grown in 5 ml YPD or selective medium until OD600 of 0.7–1.0. Cells were harvested and lysed in alkaline lysis buffer (2 M NaOH, 8% 2-mercaptoethanol). After centrifugation, the protein pellet was resuspended in 150 μl 2×SDS-sample buffer. Protein samples were separated by 8–15% SDS-PAGE and transferred to PVDF membrane. The blots were probed with primary antibodies followed by incubation with horseradish peroxidase-labelled IgG secondary antibodies. The protein bands were visualized using the ECL Chemiluminescence Detection Kit (Bio-Rad, 170–5061) and quantified with Image J software (v.1.8.0).
(§3) Supplementary Fi g . […] WT (a) and H2B-F LA G cel ls (b) wer e grown in YPD medium until OD600 of 0.7.
(§4) Cells were th en tr eat ed with YP medium supplement ed with differen t concentrations of glucos e for 0.5 hr. C ells were h ar vested an d the ex tract ed histones w er e anal yz ed by Western blots with indicat ed ant ibodies. To d et ect H2B monoubiquitination, H2B-F LAG strain w as used and d et ect ed with anti -F LAG ant ibody. Th e upper bands ar e monoubiquitinat ed H2B-F LAG. c E ff e c t of gl ucose on histone modifications in WT and ubp8∆ ubp10∆ mutant. WT and ubp8∆ ubp10∆ mut ant w er e gro wn in YPD medium unti l OD600 of 0.7. Cells wer e th en treated with YP medium supplem ent ed with di fferent con cen tr ations of gl u cos e fo r 0.5 hr. d Gluco se has no effect on the activit y of C O M PA S S . Spp1-TA P cells wer e grown in YPD medium until OD600 of 1.5. Cells were h arv est ed and then treat ed with YP + 0.05% glucos e and YP + 4% gl u cos e for 0.5 hr. Spp1-cont aining COMPASS (Spp1-CBP ) was then p urifi ed by tand em affinit y puri fi cati on ( TA P ) . Th e in vitro hi stone meth yltransferase assa y was p er form ed wit h purifi ed C O M PA S S and in vitro assembl ed nucl eosom es. e E ff e c t of the m TO R pathwa y on H3K4 meth ylation. […]
(§5) For Supplem ent ar y Fi g. 1b, e-g, i-k, d at a r ep res ent means ± SEM; n=3 i ndependent ex perim ents. For Supplem entar y Fi g. 1c, d ata represent means ± SEM; n=4 independent ex periments. Tw o -sided t-tests were used for statistical analysis.

H3R2me2a = experiment: Western blot of H3R2me2a after glucose; conditions: for H3R2me2a/H3: 0.5 hr
Protocol: as §1, §2, §3, §4, §5

Jhd2 phosphorylation = Jhd2 phosphorylation in cells at different glucose concentrations; conditions: 0.05%, 0.5%, 2% glucose, WT, Jhd2-S321A, S340A and tpk2Δ
Protocol: as §1
Cells were grown in 5 ml YPD or selective medium until OD600 of 0.7–1.0. Cells were harvested and lysed in alkaline lysis buffer (2 M NaOH, 8% 2-mercaptoethanol). After centrifugation, the protein pellet was resuspended in 150 μl 2×SDS-sample buffer. Protein samples were separated by 8–15% SDS-PAGE and transferred to PVDF membrane. […] The protein bands were visualized using the ECL Chemiluminescence Detection Kit (Bio-Rad, 170–5061) and quantified with Image J software (v.1.8.0).

Bcy1 = experiment: Dissociation of Tpk1, Tpk2, Tpk3 from Bcy1 after glucose, Co-IP; conditions: 2% glucose, 0-30 min
Protocol: Yeast whole cell extract was prepared by vortexing with glass beads and then digested with Micrococcal Nuclease (MNase). Pre-cleared cell lysate was incubated with anti-FLAG M2 agarose for 1 hr at 4 °C. The beads were washed three times with IP washing buffer (40 mM HEPES-KOH, pH7.5, 0.1% NP-40, 10% glycerol, 1 mM PMSF, 350 mM NaCl, 2 μg/ml leupeptin, 1 μg/ml pepstatin A) and boiled in SDS-sample buffer for 5 min. Supernatants from the boiled beads were subjected to SDS-PAGE and Western blots.
Supplementary Fi g . 11 Analysis of PKA subunits subcellular localization, expression and Bcy1 dissociation kinetics. a Subcellul ar localiz ation of Tpk1, Tpk2 and Tp k3. Cells (Tpk1-FLAG, Tpk2- FLAG, Tpk3- F LA G) wer e grown in YP+2% glucos e medium. Th e localization of Tpk1, Tpk2 and Tp k3 was detect ed with ant i-F LAG antibod y. […] Bc y1 was immunoprecipitated from cells (Tpk1- FLAG/Bcy1- M yc, Tpk2- FLAG/Bcy1-M yc, Tpk3- FLAG/Bcy1- M yc) with anti-M yc antibody.
For Supplem ent ar y Fi g. 11 b, dat a r ep res ent m ean s ± SEM; n=3 independent ex perim ents. Tw o -sid ed t-t ests were us ed for statistical […]
(1 picture or pasted object on this page, not shown here)

[1] = 0.5% glucose, relative to 0.05% glucose = 1, replicate 1
[2] = 0.5% glucose, relative to 0.05% glucose = 1, replicate 2
[3] = 0.5% glucose, relative to 0.05% glucose = 1, replicate 3
[4] = 1% glucose, relative to 0.05% glucose = 1, replicate 1
[5] = 1% glucose, relative to 0.05% glucose = 1, replicate 2
[6] = 1% glucose, relative to 0.05% glucose = 1, replicate 3
[7] = 2% glucose, relative to 0.05% glucose = 1, replicate 1
[8] = 2% glucose, relative to 0.05% glucose = 1, replicate 2
[9] = 2% glucose, relative to 0.05% glucose = 1, replicate 3
[10] = 4% glucose, relative to 0.05% glucose = 1, replicate 1
[11] = 4% glucose, relative to 0.05% glucose = 1, replicate 2
[12] = 4% glucose, relative to 0.05% glucose = 1, replicate 3

## OC[C@H]1OC(O)[C@H](O)[C@@H](O)[C@@H]1O (stereo partly shown) [glucose]
H2Bub; [1]
  H2Bub/H2B: 1.541
H2Bub; [2]
  H2Bub/H2B: 1.389
H2Bub; [3]
  H2Bub/H2B: 1.9778
H2Bub; [4]
  H2Bub/H2B: 1.812
H2Bub; [5]
  H2Bub/H2B: 3.264
H2Bub; [6]
  H2Bub/H2B: 4.024
H2Bub; [7]
  H2Bub/H2B: 2.484
H2Bub; [8]
  H2Bub/H2B: 4.332
H2Bub; [9]
  H2Bub/H2B: 3.575
H2Bub; [10]
  H2Bub/H2B: 3.885
H2Bub; [11]
  H2Bub/H2B: 5.306
H2Bub; [12]
  H2Bub/H2B: 5.56
H2Bub; H2B-FLAG cells, glucose 0.5 hr, Western blot
  H2Bub level: induced H2Bub
H3R2me2a; [1]
  H3R2me2a/H3: 1.016
H3R2me2a; [2]
  H3R2me2a/H3: 0.8082
H3R2me2a; [3]
  H3R2me2a/H3: 1.063
H3R2me2a; [4]
  H3R2me2a/H3: 1.0068
H3R2me2a; [5]
  H3R2me2a/H3: 0.9832
H3R2me2a; [6]
  H3R2me2a/H3: 1.068
H3R2me2a; [7]
  H3R2me2a/H3: 0.9685
H3R2me2a; [8]
  H3R2me2a/H3: 0.8294
H3R2me2a; [9]
  H3R2me2a/H3: 0.8742
H3R2me2a; [10]
  H3R2me2a/H3: 1.047
H3R2me2a; [11]
  H3R2me2a/H3: 0.9174
H3R2me2a; [12]
  H3R2me2a/H3: 0.9548
H3R2me2a; glucose 0.5 hr, Western blot
  H3R2me2a level: had no significant effect on H3R2me2a
Jhd2 phosphorylation
  Jhd2 phosphorylation in response to glucose: Jhd2 phosphorylation was elevated when the concentration of glucose was increased from 0.05 to 2% in WT but not in Jhd2-S321A, S340A and tpk2Δ mutants
Bcy1
  dissociation of Tpk2 from Bcy1 compared with Tpk1 and Tpk3: Tpk2 dissociated with Bcy1 with a faster kinetics than Tpk1 and Tpk3
